Measurements as given in the NIST ThermoML archive (doi:10.1021/je500420g).
Numbers after ± are expanded uncertainties.

Experiment: xn = mol fraction of the nth substance listed
Conditions: 100 kPa, Liquid, Vibrating tube method

Row | SMILES | mass density (293.15 K, x1 = 0.01) | mass density (293.15 K, x1 = 0.03) | mass density (293.15 K, x1 = 0.05) | mass density (303.15 K, x1 = 0.01) | mass density (303.15 K, x1 = 0.03) | mass density (303.15 K, x1 = 0.05) | mass density (313.15 K, x1 = 0.01) | mass density (313.15 K, x1 = 0.03) | mass density (313.15 K, x1 = 0.05) | mass density (323.15 K, x1 = 0.01) | mass density (323.15 K, x1 = 0.03) | mass density (323.15 K, x1 = 0.05) | mass density (333.15 K, x1 = 0.01) | mass density (333.15 K, x1 = 0.03) | mass density (333.15 K, x1 = 0.05)
1 | [F-].[Rb+] [rubidium fluoride (RbF)] + O | 1048.7 ± 0.2 kg/m3 | 1150.6 ± 0.3 kg/m3 | 1250.3 ± 0.4 kg/m3 | 1045.7 ± 0.2 kg/m3 | 1146.5 ± 0.3 kg/m3 | 1246.1 ± 0.4 kg/m3 | 1042 ± 0.2 kg/m3 | 1141.9 ± 0.3 kg/m3 | 1241.4 ± 0.4 kg/m3 | 1037.6 ± 0.2 kg/m3 | 1137 ± 0.3 kg/m3 | 1236.2 ± 0.4 kg/m3 | 1032.6 ± 0.2 kg/m3 | 1131.6 ± 0.3 kg/m3 | 1230.6 ± 0.4 kg/m3
2 | [I-].[Rb+] [rubidium iodide (RbI)] + O | 1088.1 ± 0.2 kg/m3 | 1259.7 ± 0.4 kg/m3 | 1423.2 ± 0.5 kg/m3 | 1084.2 ± 0.2 kg/m3 | 1254.2 ± 0.4 kg/m3 | 1416.3 ± 0.5 kg/m3 | 1079.8 ± 0.2 kg/m3 | 1248.4 ± 0.4 kg/m3 | 1409.2 ± 0.5 kg/m3 | 1074.9 ± 0.3 kg/m3 | 1242.3 ± 0.4 kg/m3 | 1402 ± 0.5 kg/m3 | 1069.6 ± 0.3 kg/m3 | 1235.9 ± 0.4 kg/m3 | 1394.6 ± 0.5 kg/m3
3 | [Br-].[Na+] [sodium bromide] + O | 1043.6 ± 0.2 kg/m3 | 1129.5 ± 0.3 kg/m3 | 1217.1 ± 0.3 kg/m3 | 1040 ± 0.2 kg/m3 | 1125.2 ± 0.3 kg/m3 | 1211.8 ± 0.3 kg/m3 | 1035.8 ± 0.2 kg/m3 | 1120.4 ± 0.3 kg/m3 | 1206.2 ± 0.3 kg/m3 | 1031.1 ± 0.2 kg/m3 | 1115.1 ± 0.3 kg/m3 | 1200.2 ± 0.3 kg/m3 | 1026 ± 0.2 kg/m3 | 1109.4 ± 0.3 kg/m3 | 1194 ± 0.3 kg/m3
4 | [Cl-].[Na+] [sodium chloride] + O | 1021.3 ± 0.2 kg/m3 | 1066.2 ± 0.2 kg/m3 | 1110.8 ± 0.3 kg/m3 | 1018.3 ± 0.2 kg/m3 | 1062.4 ± 0.2 kg/m3 | 1106.2 ± 0.3 kg/m3 |  | 1058 ± 0.2 kg/m3 | 1101.6 ± 0.3 kg/m3 | 1010.1 ± 0.2 kg/m3 | 1052.4 ± 0.2 kg/m3 | 1096.4 ± 0.3 kg/m3 | 1005.1 ± 0.2 kg/m3 | 1047.6 ± 0.2 kg/m3 | 1090.9 ± 0.3 kg/m3
5 | [F-].[Na+] [sodium fluoride] + O | 1022.7 ± 0.2 kg/m3 |  |  | 1019.7 ± 0.2 kg/m3 |  |  | 1016 ± 0.2 kg/m3 |  |  | 1011.5 ± 0.2 kg/m3 |  |  | 1006.5 ± 0.2 kg/m3 |  | 
6 | [I-].[Na+] [sodium iodide] + O | 1061.7 ± 0.2 kg/m3 | 1186.7 ± 0.3 kg/m3 | 1309.5 ± 0.4 kg/m3 | 1058.4 ± 0.2 kg/m3 | 1181.8 ± 0.3 kg/m3 | 1303.2 ± 0.4 kg/m3 | 1054.2 ± 0.2 kg/m3 | 1176.3 ± 0.3 kg/m3 | 1296.5 ± 0.4 kg/m3 | 1049.5 ± 0.2 kg/m3 | 1169.1 ± 0.3 kg/m3 | 1289.5 ± 0.4 kg/m3 | 1044.1 ± 0.2 kg/m3 | 1163.4 ± 0.3 kg/m3 | 1282.2 ± 0.4 kg/m3
